In patent publication EP0358766A1, “METHOD OF STERILIZING PLANT ANTHERS” (VSESOJUZNY NAUCHNO-ISSLEDOVATELSKY INST. SELSKOKHOZYAISTV. …, priority 1988, dated 1989):

What was measured:
[1] = system: diploidem Roggen Voskhod 2; experiment: Field test of gametocidal activity, diploid rye Voskhod 2; assay type: in vivo; details: period V, 1% aqueous emulsion, 10 kg/ha in 1000 l water
From the text: Die gametozide Aktivität der erfindungsgemäßen Sterilisationsmittel war in Feldversuchen in verschiedenen bodenklimatischen Zonen mit Teilstücken von 10 m^2 Größe in dreibis viermaliger Wiederholung festgestellt. Jedes Sterilisationsmittel wurde mindenstens 5 Jahre lang geprüft.
Die Entwicklung der Perioden der Organogenese wird zytologisch überwacht. Die Behandlung von Pflanzen mit dem Sterilisationsmittel erfolgt am Anfang der fünften Periode der Organogenese nach Kupermann.
Mit dem Ährenschieben verwirklicht man die Isolierung von Hauptähren und anderen Stockwerken in Pergametbeuteln. Bei Weizen und Tritikale werden Einzelisolatoren benutzt. Bei Roggen schließt man je 1 Ähre von […] verschiedenen nebeneinander befindlichen Pflanzen unter einen gemeinsamen Isolator ein. Bei Hirse wird jede Rispe getrennt isoliert. Der Sterilitätsprozentsatz (X) für Weizen, Roggen, Tritikale und Hirse wird nach der Formel [formula] ermittelt.
Die Kornzahl in nicht isolierten Ähren von Kontrollpflanzen wird bedingt für 100 % Ansetzen bei freier Bestäubung angenommen.
Um zuverlässige Angaben zu erhalten, verwendet man 20 bis 25 Isolatoren je Wiederholung für Weizen und Tritikale, 10 bis 15 Isolatoren jeder Wiederholung für Roggen und Hirse.
Pflanzen von diploidem Roggen Voskhod 2 werden in der V. Periode der Organogenese mit einer 1%igen wäßrigen Emulsion von 1,1,3-Tribrompropan, 1,1,3-Tribrom-4-chlorbutan bzw. 1,1,2,3-Tetrabrompropan behandelt. Die Emulsion enthält 0,5 Masse% C12-C14-Kalziumalkylbenzolsulfonat und 0,01 Masse% Dimethylformamid. Der Verbrauch an Präparat beträgt 10 kg/ha bei 1000 1 Wasserdurchsatz. Die Prüfergebnisse sind in der Tabelle 14 angegeben. Die gleichen Ergebnisse sind bei der Behandlung von diploidem Roggen Voskhod 2 in der VI. Periode der Organogenese erhalten..

[2] = workplace air limit; cited from earlier work

| SMILES | Kornzahl der Ähre bei freier Bestäubung [1] | Kornzahl der Ähre unter Isolator [1] | Prozentsatz der Sterilität [1] | Prozentsatz des Ansetzens von Samen bei freier Bestäubung ([1]; control = 100) | maximale Arbeitsplatzkonzentration (MAK-Wert) [2] |
| --- | --- | --- | --- | --- | --- |
| BrCCC(Br)Br [Beispiel 1, 1,1,3-Tribrompropan] | 48,6 | 0,9 | 98,2% | 89,0% |  |
| CC(Br)CBr (centres unmarked) [Beispiel 5, 1,2-Dibrompropan] |  |  |  |  | 5 mg/m^3 |
